Measured values: a melting point compilation (Tetko et al.; mined from patent text by program, amines drawn as free bases though some values may be those of a salt)

| Structure (SMILES) | melting point [°C] |
| --- | --- |
| C/C(=C\CC1OC(=O)NC1=O)c1cccc(OCc2nc(-c3ccc(OCC(F)(F)F)cc3)oc2C)c1 (stereo not drawn) | 120 to 121 |
| Cc1c(C(O)C2CCc3cc4ccccc4n3C2=O)ncn1C(c1ccccc1)(c1ccccc1)c1ccccc1 (stereo not drawn) | 85 to 90 |
| CCCCc1oc2ccccc2c1C(=O)NCc1ccc2c(Br)c(OCC(=O)OC)ccc2c1 | 140 to 141 |
| COc1ccc(CCCOc2c(C)cc(-c3noc(C(F)(F)F)n3)cc2C)cn1 | 62 to 64 |
| CC(=O)N[C@H]1CC[C@H](CCN2CCN(c3ncc(C)c4c3CCO4)CC2)CC1 | 196 |
| CC(=O)c1c(C)[nH]c(C2CCCC2)c1C | 162 to 164 |
| COc1cc(C)c(C(=O)CCCCCCCCCCCO)c(O)c1OC | 82 |
| Cc1c(-c2ccncc2)oc2c1C(=O)CCC2 | 136 to 138 |
| C[C@@H]1CNCCN1C(=O)OC(C)(C)C | 33 to 36 |
| COC(=O)c1cc(CCC(=O)NCc2ccccc2)ccc1O | 139 to 140 |
| Cc1nnc(-c2ccccc2)c2nc(OCc3ncnn3C)c(C3CCCC3)n12 | 137 |
| CCOC(=O)c1c(Cl)[nH]c(=O)c(I)c1Oc1cc(C)cc(C)c1 | 180 to 182 |
| Cc1nc(C)c2c(n1)N(Cc1ccc(-c3ccccc3-c3nnn[nH]3)cc1)C(=O)C(O)C2 (stereo not drawn) | 154 to 156 |
| Cc1cc(Cl)ccc1-c1nn(C(C)(C)C(=O)N(C)C)cc1C | 99 to 100 |
| C=CC(=O)c1cc(OC)c(OC)c(OC)c1 | 46 to 47 |
| CC(=O)CCCCC(=O)Nc1ccccc1 | 85.5 to 86.5 |
| COc1ccc(C=CC(=O)O)cc1-c1cc2c(cc1OCCCCCO)C(C)(C)CCC2(C)C | 115 to 117 |
| Cc1ccsc1C(=O)c1cccn1N1C(=O)c2ccccc2C1=O | 221 to 223 |
| COC(=O)C1=C(O)c2ccc3ccccc3c2S(=O)(=O)N1 | 218 to 220 |

| Structure (SMILES) | melting point [°C] |
| --- | --- |
| Cc1nc(-c2ccc(OCCCCCOc3ccc(C(=N)NO)cc3)cc2)c(C(C)C)s1 | 97 |
| CC(C)(C)OC(=O)NCC(=O)Oc1cc(Cl)c(Cl)cc1Cl | 100 to 103 |
| O=C1N[C@H](Cc2ccc(C(F)(F)F)cc2)[C@H](c2ccccc2F)O1 (racemic) | 146 to 147 |
| O=C(O)COc1ccc2cc(CNC(=O)c3cnn(-c4ccc(Cl)cc4)c3C(F)(F)F)ccc2c1 | 189 to 191 |
| COc1ccc(CNc2nc(NCc3ccc(C(O)C(F)(F)F)cc3)nc3ncccc23)cc1OC (stereo not drawn) | 121 to 122 |
| N#Cc1c2c(c3c(c1N1CCCCC1)Cc1ccccc1-3)Cc1ccccc1-2 | 186 to 188 |
| COC(=O)c1cccc(NC(=O)CSC(C)=O)c1 | 118 to 120 |
| CCOC(=O)CCC(CCCCNS(=O)(=O)c1ccc(Cl)cc1)CCOc1cccnc1 (stereo not drawn) | 90 to 93 |
| O=C(O)C1Oc2cc(Cl)c(S(=O)(=O)c3ccc4c(c3)OCO4)cc2O1 (stereo not drawn) | 182 to 184 |
| Cc1nc(-c2ccc3c(=O)n(CC(C)C)c(CNC(=O)OC(C)(C)C)c(-c4ccccc4)c3c2)sc1C(N)=O | 227 to 228 |
| CCC1(CO)CCCN2CCC3=c4ccccc4=NC3=C21 (stereo not drawn) | 111 to 113 |
| OCc1ccc2c(c1)ncn2-c1cccc(Br)c1 | 107 to 109 |
| CCc1nnc(-c2ccc(-c3ccccc3)cc2)n1-c1cccc2cnccc12 | 228 to 230 |
| CCC(C)(C)c1ccc(O)c(C(=O)Nc2ccc([N+](=O)[O-])cc2C)c1 | 150 to 151 |
| CCC(=O)Cc1ccc(OCc2nnn[nH]2)cc1 | 148 to 150 |
| CCOC(=O)c1ccc2cc(Oc3cccc([N+](=O)[O-])c3)ccn2c1=O | 161 to 163 |
| CCOC(=O)C(=CNc1ccc(F)c(N2CCN(C(=O)OCC)CC2)n1)C(=O)OCC | 144 to 145 |
| CCOc1ccc(-c2nc(-c3cc(CCO)c(O)c(C(=O)OC)c3)cs2)cc1OCC | 113 to 114 |
| CCOCc1cnn2c(-c3cccc(C(F)(F)F)c3)ccnc12 | 110 to 111 |
